From article PMC5538625, “Perception of root‐active CLE peptides requires CORYNE function in the phloem vasculature” (EMBO Reports, 2017)
Residue numbers refer to the chain shown, from its start. Like-named read-outs stand apart in the source and are kept apart here. Where no end group is shown, it is not given here. [ ]: non-standard residue; d: D form. Hyp = O=C(O)[C@@H]1C[C@@H](O)CN1

Key:
[1] = system: Arabidopsis Col-0 seedlings (primary root); details: cited from earlier work
Description: page 3: EMBO reports - Peer Review Process File - EMBO-2016-43535 including a report from the same group (Kinoshita et al, 2007 Plant Cell Physiol 48:1821; Whitford et al, 2008 PNAS 105:18625; Depuydt et al. 2013 PNAS 110:7074) where CLE6 peptides exert the root shortening activity only at a very high concentration (10 µM). Results on CLE8, CLE16, CLE17, CLE20 and CLE22 are also different from the previous report (Depuydt et al. 2013). […] Please indicate the meaning of the asterisks in column "Col-0" in Figure 2B, "***a" and "***b" in Figure 2C, describe all the peptide sequences used in this study and re-confirm if the results are correct and reproducible. The details are the following.” ….and subordinate comments.

[2] = system: bam3 mutant seedlings (primary root); details: compared with WT; ref Depuydt et al., 2013; cited from earlier work
Source text: (§1) “6. We'd also like the authors to answer or discuss following aspects in the discussion part.” “6-1. How do you explain the insensitivity of crn to all CLE peptides? Does it control expression of CLV as well?” At this point we can only speculate on this. As we highlight in the discussion, maybe the expression of other, yet to be identified CLE receptors in the root also depends on CR ...

BAM3 = details: ref Shinohara et al., 2012; cited from earlier work
Source text: page 6: EMBO reports - Peer Review Process File - EMBO-2016-43535 of both. […] Or alternatively to measure mRNA level by qRT-PCR. This will at least resolve if it's transcriptional regulation or not. 3. One way to bolster their statement about CRN's BAM3 regulation would be to do a simple complementation. If authors' already generated CRN::CRN in crn mutant background, we highly recommend that the authors use this line as well. BAM3-BAM3-CITRINE construct are introduced ...

BAM1 = details: CLE9gp arabinosylated, CLE9p non-arabinosylated; ref Shinohara et al., 2012; cited from earlier work
Source text: as §1

[3] = molecular target: IDA peptide (Arabidopsis thaliana) (UniProt Q8LAD7); details: cited from earlier work
[4] = molecular target: IDA peptide (Arabidopsis thaliana) (UniProt Q8LAD7); details: cited from earlier work; remark: listed apart in the source
[5] = system: Arabidopsis Col-0 seedlings (primary root); assay: Root growth assay, wild type (Col-0); assay type: in vivo, Arabidopsis thaliana; details: 50 nM peptide, 9-day-old seedlings, primary root length, n ≥ 12
Description: Plant tissue culture, plant transformation, and common molecular biology procedures such as genomic DNA isolation, genotyping, sequencing, and peptide or inhibitor treatments were performed according to standard procedures as previously described 9, 19, 44, 65.
All mutant and transgenic lines were in the Arabidopsis Columbia‐0 (Col‐0) background. The following previously described mutant alleles were used throughout: brx‐2, bam3‐2, brx‐2 bam3, clv2‐1, serk1‐1 and serk1‐3, serk2‐1, serk3‐1, serk4‐1, serk5‐1 9, 47, 59, 66, 67, 68. The crn loss‐of‐function mutant allele (crn‐10) carries a single nucleotide insertion in front of the 7th codon, which leads to a frameshift and three subsequent premature stop codons after amino acid 10 52.

[6] = molecular target: T1, BAM3 extracellular (LRR) domain (30–651) (Arabidopsis thaliana, UniProt O65440); assay: biochemical; assay type: binding
T1 construct: azurocidin signal peptide (N); made in house; host or cells: Trichoplusia ni Tnao38 insect cells (baculovirus, secreted)
Description: Isothermal titration calorimetry assays were run on a Nano ITC (1 ml standard cell; 250 μl syringe; TA Instruments) at 25°C in 20 mM sodium citrate pH 5 and 150 mM NaCl for all ITCs with BAM3 and 10 mM Bis–Tris pH 6 and 100 mM NaCl for the ITC with PXY. […] For each experiment, 10 μl was repetitively injected into the cell in 150 s time intervals. The measured heat rates for the BAM3‐ECD vs. CLE45, BAM3^QYY vs. CLE45, BAM3‐ECD vs. Y‐CLE45, BAM3‐ECD vs. CLV3, BAM3‐ECD vs. Y‐CLV3, and PXY‐ECD vs. CLE41/44 were corrected by subtracting the heat rates measured for injecting CLE45, Y‐CLE45, CLV3, Y‐CLV3, or CLE41/44 into the ITC buffer, respectively. The data for the BAM3‐ECD + CLE45 vs. SERK1‐ECD measurement was corrected by subtracting heat rates acquired by injecting SERK1‐ECD into a cell containing CLE45. Data analyses and modeling were carried out using the software supplied by the manufacturer (NanoAnalyze, version 3.5).

[7] = molecular target: T2, BAM3^QYY extracellular domain (BAM3^QYY-ECD) (Arabidopsis thaliana, UniProt O65440 30-651, Q226A | Y228A | Y231A); assay: ITC
T2 sequence: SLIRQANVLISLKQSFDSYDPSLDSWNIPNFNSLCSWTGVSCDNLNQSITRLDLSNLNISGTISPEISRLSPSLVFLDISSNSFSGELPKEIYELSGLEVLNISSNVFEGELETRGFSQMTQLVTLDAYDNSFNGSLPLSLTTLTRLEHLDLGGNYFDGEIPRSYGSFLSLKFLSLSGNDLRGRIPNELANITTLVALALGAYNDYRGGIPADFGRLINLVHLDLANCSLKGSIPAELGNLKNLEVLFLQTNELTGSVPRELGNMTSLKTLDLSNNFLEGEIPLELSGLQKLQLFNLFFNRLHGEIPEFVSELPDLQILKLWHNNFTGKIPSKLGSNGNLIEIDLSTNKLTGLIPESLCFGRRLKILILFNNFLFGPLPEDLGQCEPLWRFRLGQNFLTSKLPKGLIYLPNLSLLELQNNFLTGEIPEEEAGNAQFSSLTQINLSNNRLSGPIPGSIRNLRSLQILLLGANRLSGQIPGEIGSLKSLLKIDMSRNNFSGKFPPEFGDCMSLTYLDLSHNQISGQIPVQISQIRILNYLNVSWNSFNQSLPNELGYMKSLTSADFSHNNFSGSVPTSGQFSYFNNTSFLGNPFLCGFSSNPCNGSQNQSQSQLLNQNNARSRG

[8] = molecular target: T3, BAM3^QYY extracellular domain (BAM3^QYY-ECD) (Arabidopsis thaliana, UniProt O65440 30-651, Q226A | Y228A | Y231A); assay: ITC; peptide titrated (10 μl injections, 150 s intervals) into the BAM3 ectodomain in the cell; Nano ITC, 25°C, 20 mM sodium citrate pH 5, 150 mM NaCl; details: both partners purified
T3 construct: Same construct as m1 (azurocidin signal peptide for secretion) with three point mutations; also called mutant BAM3^QYY; source: Trichoplusia ni Tnao38 cells, secreted, purified (Ni2+, StrepII, size-exclusion chromatography)
T3 sequence (looked up): T2 sequence

[9] = molecular target: T4, BAM3 extracellular domain (BAM3-ECD) (Arabidopsis thaliana, UniProt O65440 30-651); assay: as above; details: both partners purified
T4 construct: Cloned in a modified pFastBac1 with an N-terminal azurocidin signal peptide for secretion; MALDI-TOF mass 94,586 Da; also called BAM3 LRR domain; BAM3 ectodomain; source: Trichoplusia ni Tnao38 cells, secreted, purified (Ni2+, StrepII, size-exclusion chromatography)
T4 sequence (looked up): T2 sequence with A197Q, A199Y, A202Y

[10] = molecular target: T5, BAM3 extracellular domain (BAM3-ECD) (Arabidopsis thaliana, UniProt O65440 30-651); assay: ITC
T5 chain: T2 sequence with A197Q, A199Y, A202Y

[11] = molecular target: T6, PXY extracellular domain (PXY-ECD) (Arabidopsis thaliana, UniProt Q9FII5 30-647); assay: ITC
T6 chain: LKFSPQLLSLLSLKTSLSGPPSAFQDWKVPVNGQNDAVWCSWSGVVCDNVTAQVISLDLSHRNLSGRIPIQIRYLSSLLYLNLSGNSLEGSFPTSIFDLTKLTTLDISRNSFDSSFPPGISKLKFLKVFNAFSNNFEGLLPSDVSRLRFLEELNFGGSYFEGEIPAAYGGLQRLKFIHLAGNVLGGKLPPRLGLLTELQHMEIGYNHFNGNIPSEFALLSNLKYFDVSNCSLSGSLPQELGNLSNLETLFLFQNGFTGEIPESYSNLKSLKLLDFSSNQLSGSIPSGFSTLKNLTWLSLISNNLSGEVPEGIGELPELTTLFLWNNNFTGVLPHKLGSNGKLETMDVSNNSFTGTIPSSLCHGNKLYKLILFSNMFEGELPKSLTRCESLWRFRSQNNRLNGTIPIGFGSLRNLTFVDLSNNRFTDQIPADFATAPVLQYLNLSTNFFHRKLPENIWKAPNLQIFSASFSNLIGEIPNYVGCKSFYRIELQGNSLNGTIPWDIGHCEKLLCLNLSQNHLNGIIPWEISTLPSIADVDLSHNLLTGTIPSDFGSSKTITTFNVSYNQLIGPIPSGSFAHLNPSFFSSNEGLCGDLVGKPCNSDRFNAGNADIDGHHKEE

T1 sequence (O65440 30-651): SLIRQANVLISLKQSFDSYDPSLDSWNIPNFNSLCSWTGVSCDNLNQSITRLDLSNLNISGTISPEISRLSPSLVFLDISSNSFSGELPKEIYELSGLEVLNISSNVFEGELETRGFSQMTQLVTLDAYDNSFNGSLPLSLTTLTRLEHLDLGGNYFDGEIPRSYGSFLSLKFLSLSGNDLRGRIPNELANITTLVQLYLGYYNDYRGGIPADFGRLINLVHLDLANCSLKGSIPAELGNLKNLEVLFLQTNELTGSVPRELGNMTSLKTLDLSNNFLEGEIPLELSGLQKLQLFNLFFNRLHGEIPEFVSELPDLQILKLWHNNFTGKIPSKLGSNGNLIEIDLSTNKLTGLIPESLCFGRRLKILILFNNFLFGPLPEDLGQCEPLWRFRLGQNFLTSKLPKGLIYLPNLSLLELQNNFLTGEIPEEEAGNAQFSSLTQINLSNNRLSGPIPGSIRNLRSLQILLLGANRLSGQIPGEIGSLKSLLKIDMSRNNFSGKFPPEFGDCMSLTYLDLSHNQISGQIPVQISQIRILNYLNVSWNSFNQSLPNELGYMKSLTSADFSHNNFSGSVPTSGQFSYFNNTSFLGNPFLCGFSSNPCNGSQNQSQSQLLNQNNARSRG
Chain of IDA peptide (Arabidopsis thaliana) (Q8LAD7 27-77): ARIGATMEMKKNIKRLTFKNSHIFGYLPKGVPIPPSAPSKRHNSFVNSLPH

CLE6: CLE6 peptide (earlier reports; not assayed) (RVSPGGPDPQHH; ends and bridges not checked; UniProt Q8S8N3 70-81, looked up)
concentration needed for root shortening activity ([1]; referee's comment, ref Kinoshita et al, 2007, Whitford et al, 2008, Depuydt et al. 2013): 10 µM
root growth suppression in words ([1]; tissue culture, nM to low μM concentrations): not root-active

CLE9: CLE9 (earlier reports) (RLVPSGPNPLHN; ends and bridges not checked; UniProt Q9FZE4 109-120, looked up)
root response of bam3 mutants [2]: not suppressed in bam3 mutant plants
binding to BAM3, in words (BAM3): BAM3 has been shown to have a binding activity to CLE9

CLE9gp: arabinosylated CLE9 (RLVPSGPNPLHN; ends and bridges not checked; also: arabinosylated, place not given here; UniProt Q9FZE4 109-120, looked up)
Kd (BAM1): 2.2 nM

CLE9p: non-arabinosylated CLE9 (RLVPSGPNPLHN; ends and bridges not checked; UniProt Q9FZE4 109-120, looked up)
Kd (BAM1): 1.8 nM

HAESA (from UniProt P47735)
Kd [3]: 20000 nM
Kd [4]: 350 nM

RKVKTGSNPLHN [CLE20, CLE20: …]
impact on root growth [5]: significant, reproducible impact on root growth

RKVPNGPDPIHN [CLE25, CLE25: …]
impact on root growth [5]: significant, reproducible impact on root growth

RLVHTGPNPLHN [CLE16, CLE16: …]
impact on root growth [5]: significant, reproducible impact on root growth

RLVPKGPNPLHN [CLE14, CLE14: …]
impact on root growth [5]: significant, reproducible impact on root growth

RLVPSGPNPLHH [CLE13, CLE13: …]
impact on root growth [5]: significant, reproducible impact on root growth

RLVPSGPNPLHN [CLE9/10, CLE9/10: …]
impact on root growth [5]: significant, reproducible impact on root growth

RQIPTGPDPLHN [CLE18, CLE18: …]
impact on root growth [5]: significant, reproducible impact on root growth

RQVPTGSDPLHH [CLE40, CLE40: …]
impact on root growth [5]: significant, reproducible impact on root growth

RRVPTGPNPLHH [CLE8, CLE8: …]
impact on root growth [5]: significant, reproducible impact on root growth

RRVRRGSDPIHN [CLE45]
Kd [6]: 116 ± 36 nM

RSIPTGPNPLHN [CLE21, CLE21: …]
impact on root growth [5]: significant, reproducible impact on root growth

RTVPSGPDPLHH [CLV3, CLV3: …]
impact on root growth [5]: significant, reproducible impact on root growth
N (stoichiometry) ([6]; ITC, 25°C, 20 mM sodium citrate pH 5, 150 mM NaCl, ± fitting errors (95% confidence interval), n.d.: not detectable): 0.978 +/- 0.23
reduction in binding affinity of CLV3 vs. CLE45 (fold) ([6]; ITC, Fig EV1C vs. CLE45): 70 fold

RVVPSGPNPLHH [CLE11, CLE11: …]
impact on root growth [5]: significant, reproducible impact on root growth

B1: CLE45 peptide (peptide)
peptide: RRVRRGSDPIHN
notes: CLE45, mature 12-residue CLE peptide of Arabidopsis; also called synthetic CLE45 peptide; source: synthetic peptide (Peptide Specialty Laboratories, Heidelberg)
Kd [7]: 1110 nM
fold weaker than with the wild-type LRR domain [8]: ~8 fold
Kd [9]: ~120 nM
stoichiometry N [9]: 1

B2: CLV3 peptide (ITC) (peptide)
peptide: RTV[Hyp]SG[Hyp]DPLHHH
notes: CLAVATA3 (CLV3) mature CLE peptide of Arabidopsis, 13 residues as printed for the ITC; the ITC peptide is printed with three C-terminal histidines; source: synthetic peptide (Peptide Specialty Laboratories, Heidelberg)
Kd [10]: 8620 nM
Kd [9]: ~10000 nM

YRRVRRGSDPIHN [N-terminally tyrosine-modified CLE45 peptide (Y-CLE45)]
Kd [10]: 12700 nM

B3: CLE41/44 peptide (ITC, unmodified as printed) (peptide)
peptide: HEVPSGPNPISN
notes: CLE41/44 (TDIF), mature 12-residue CLE peptide of Arabidopsis, the same from CLE41 and CLE44; The same peptide is also encoded by CLE44; also called TDIF; source: synthetic peptide (Peptide Specialty Laboratories, Heidelberg)
Kd [11]: 12.2 nM
